Results as given in patent US8642609B2, “Modulators of ATP-binding cassette transporters” (Vertex Pharmaceuticals Incorporated, priority 2003, dated 2014).

Target: T1, ΔF508-CFTR (Homo sapiens, UniProt P13569, DEL508-508)
T1 construct: expressed in transfected cells
Assay: Membrane potential optical assay (FRET/VIPR), identification of correction compounds
Type: cell-based
Conditions: for Emax: relative efficacy
Text: I) Membrane Potential Optical Methods for Assaying ΔF508-CFTR Modulation Properties of Compounds
The optical membrane potential assay utilized voltage-sensitive FRET sensors described by Gonzalez and Tsien (See, Gonzalez, J. E. and R. Y. Tsien (1995) “Voltage sensing by fluorescence resonance energy transfer in single cells” Biophys J 69(4): 1272-80, and Gonzalez, J. E. and R. Y. Tsien (1997) “Improved indicators of cell membrane potential that use fluorescence resonance energy transfer” Chem Biol 4(4): 269-77) in combination with instrumentation for measuring fluorescence changes such as the Voltage/Ion Probe Reader (VIPR) (See, Gonzalez, J. E., K. Oades, et al. (1999) “Cell-based assays and instrumentation for screening ion-channel targets” Drug Discov Today 4(9): 431-439).
These voltage sensitive assays are based on the change in fluorescence resonant energy transfer (FRET) between the membrane-soluble, voltage-sensitive dye, DiSBAC2(3), and a fluorescent phospholipid, CC2-DMPE, which is attached to the outer leaflet of the plasma membrane and acts as a FRET donor. Changes in membrane potential (Vm) cause the negatively charged DiSBAC2(3) to redistribute across the plasma membrane and the amount of energy transfer from CC2-DMPE changes accordingly. The changes in fluorescence emission were monitored using VIPR™ II, which is an integrated liquid handler and fluorescent detector designed to conduct cell-based screens in 96- or 384-well microtiter plates.
Identification of Correction Compounds
To identify small molecules that correct the trafficking defect associated with ΔF508-CFTR; a single-addition HTS assay format was developed. The cells were incubated in serum-free medium for 16 hrs at 37° C. in the presence or absence (negative control) of test compound. As a positive control, cells plated in 384-well plates were incubated for 16 hrs at 27° C. to “temperature-correct” ΔF508-CFTR. The cells were subsequently rinsed 3× with Krebs Ringers solution and loaded with the voltage-sensitive dyes. To activate ΔF508-CFTR, 10 μM forskolin and the CFTR potentiator, genistein (20 μM), were added along with Cl^−-free medium to each well. The addition of Cl^−-free medium promoted Cl^− efflux in response to ΔF508-CFTR activation and the resulting membrane depolarization was optically monitored using the FRET-based voltage-sensor dyes.
NIH3T3 mouse fibroblasts stably expressing ΔF508-CFTR are used for optical measurements of membrane potential. The cells are maintained at 37° C. in 5% CO2 and 90% humidity in Dulbecco's modified Eagle's medium supplemented with 2 mM glutamine, 10% fetal bovine serum, 1×NEAA, β-ME, 1× pen/strep, and 25 mM HEPES in 175 cm^2 culture flasks. For all optical assays, the cells were seeded at 30,000/well in 384-well matrigel-coated plates and cultured for 2 hrs at 37° C. before culturing at 27° C. for 24 hrs. for the potentiator assay. For the correction assays, the cells are cultured at 27° C. or 37° C. with and without compounds for 16-24 hours B) Electrophysiological Assays for assaying ΔF508-CFTR modulation properties of compounds

T1 sequence (P13569 with tags, fused parts or gaps DEL508-508): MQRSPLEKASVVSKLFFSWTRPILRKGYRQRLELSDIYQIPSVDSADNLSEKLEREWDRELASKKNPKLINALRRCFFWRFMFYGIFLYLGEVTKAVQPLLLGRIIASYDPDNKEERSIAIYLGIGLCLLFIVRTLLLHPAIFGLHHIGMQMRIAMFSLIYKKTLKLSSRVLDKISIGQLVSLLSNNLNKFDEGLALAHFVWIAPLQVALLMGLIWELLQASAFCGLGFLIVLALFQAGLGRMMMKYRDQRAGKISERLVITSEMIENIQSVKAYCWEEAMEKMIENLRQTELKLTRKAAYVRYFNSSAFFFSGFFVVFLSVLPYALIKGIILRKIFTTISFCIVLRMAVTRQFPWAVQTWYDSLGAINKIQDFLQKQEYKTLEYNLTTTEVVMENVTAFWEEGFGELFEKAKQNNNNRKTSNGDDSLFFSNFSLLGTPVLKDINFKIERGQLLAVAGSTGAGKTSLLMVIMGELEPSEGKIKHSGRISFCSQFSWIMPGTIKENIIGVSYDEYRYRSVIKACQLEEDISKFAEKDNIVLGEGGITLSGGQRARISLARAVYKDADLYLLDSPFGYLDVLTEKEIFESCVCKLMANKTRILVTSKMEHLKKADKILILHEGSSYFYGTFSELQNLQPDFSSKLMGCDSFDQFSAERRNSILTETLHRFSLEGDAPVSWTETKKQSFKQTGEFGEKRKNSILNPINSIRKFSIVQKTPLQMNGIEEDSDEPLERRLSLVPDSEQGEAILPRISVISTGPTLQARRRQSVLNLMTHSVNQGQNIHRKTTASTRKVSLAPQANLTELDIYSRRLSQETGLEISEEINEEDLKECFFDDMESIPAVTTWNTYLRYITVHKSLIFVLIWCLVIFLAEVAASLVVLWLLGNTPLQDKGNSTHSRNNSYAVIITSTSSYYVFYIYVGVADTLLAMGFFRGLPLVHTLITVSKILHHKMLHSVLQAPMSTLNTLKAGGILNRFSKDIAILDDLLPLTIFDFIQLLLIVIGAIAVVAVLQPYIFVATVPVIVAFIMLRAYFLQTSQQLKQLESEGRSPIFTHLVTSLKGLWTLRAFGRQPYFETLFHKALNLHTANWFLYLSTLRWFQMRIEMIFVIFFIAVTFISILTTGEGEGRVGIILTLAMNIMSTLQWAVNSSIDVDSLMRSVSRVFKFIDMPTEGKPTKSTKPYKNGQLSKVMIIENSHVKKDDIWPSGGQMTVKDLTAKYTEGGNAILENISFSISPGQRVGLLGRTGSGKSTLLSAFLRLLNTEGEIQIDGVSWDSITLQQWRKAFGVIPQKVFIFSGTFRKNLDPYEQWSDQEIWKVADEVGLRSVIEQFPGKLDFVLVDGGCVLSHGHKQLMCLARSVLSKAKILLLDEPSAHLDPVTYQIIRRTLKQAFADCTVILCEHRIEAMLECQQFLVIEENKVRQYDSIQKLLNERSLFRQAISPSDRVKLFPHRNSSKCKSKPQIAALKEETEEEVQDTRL

Compound	EC50	Emax
Cc1cccc(NC(=O)N2CCN(C(C)c3nc4ccc(Cl)cc4c(=O)n3C)CC2C)c1 (stereo not shown) [compound 1]	25 to 60 µM	25 to 100%
CC(c1nc2ccc(Cl)cc2c(=O)n1C)N1CCN(C(=O)Nc2ccccc2Br)C(C)C1 (stereo not shown) [compound 2]	25 to 60 µM	25 to 100%
CC(c1nc2ccc(Cl)cc2c(=O)n1C)N1CCN(C(=O)Nc2ccc(F)cc2F)C(C)C1 (stereo not shown) [compound 3]	25 to 60 µM	< 25%
COCCn1c(C(C)N2CCN(S(=O)(=O)c3ccc(OC)cc3)CC2)nc2ccccc2c1=O (stereo not shown) [compound 4]	10 to 25 µM	25 to 100%
COCCn1c(C(C)N2CCN(S(=O)(=O)c3ccc(Br)cc3)CC2)nc2ccccc2c1=O (stereo not shown) [compound 5]	< 10 µM	> 100%
COc1ccc(S(=O)(=O)N2CCN(C(C)c3nc4ccccc4c(=O)n3C)CC2)cc1 (stereo not shown) [compound 6]	10 to 25 µM	25 to 100%
CC(c1nc2ccccc2c(=O)n1C)N1CCN(S(=O)(=O)c2cccc(C(F)(F)F)c2)CC1 (stereo not shown) [compound 7]	10 to 25 µM	25 to 100%
COc1ccc(NC(=O)N2CCN(C(C)c3nc4ccccc4c(=O)n3C)CC2)c(OC)c1 (stereo not shown) [compound 8]	25 to 60 µM	< 25%
CC(c1nc2ccccc2c(=O)n1C)N1CCN(S(=O)(=O)c2ccc(Cl)cc2)CC1 (stereo not shown) [compound 9]	10 to 25 µM	> 100%
CC(c1nc2ccccc2c(=O)n1C)N1CCN(S(=O)(=O)c2ccc(F)cc2)CC1 (stereo not shown) [compound 10]	25 to 60 µM	25 to 100%
Cc1ccc(S(=O)(=O)N2CCN(C(C)c3nc4ccccc4c(=O)n3C)CC2)cc1 (stereo not shown) [compound 11]	10 to 25 µM	25 to 100%
CC(c1nc2ccccc2c(=O)n1C)N1CCN(S(=O)(=O)c2cccc3ccccc23)CC1 (stereo not shown) [compound 12]	10 to 25 µM	25 to 100%
CC(c1nc2ccccc2c(=O)n1C)N1CCN(S(=O)(=O)c2ccc(C(C)(C)C)cc2)CC1 (stereo not shown) [compound 13]	25 to 60 µM	< 25%
COc1cc(C(=O)N2CCN(C(C)c3nc4ccc(Cl)cc4c(=O)n3C)CC2)cc(OC)c1OC (stereo not shown) [compound 14]	25 to 60 µM	< 25%
Cc1ccccc1C(=O)N1CCN(C(C)c2nc3ccc(Cl)cc3c(=O)n2C)CC1 (stereo not shown) [compound 15]	10 to 25 µM	25 to 100%
CCCCC(=O)N1CCN(C(C)c2nc3ccc(Cl)cc3c(=O)n2C)CC1 (stereo not shown) [compound 16]	25 to 60 µM	< 25%
CC(c1nc2ccc(Cl)cc2c(=O)n1C)N1CCN(C(=O)c2ccc(Br)cc2)CC1 (stereo not shown) [compound 17]	10 to 25 µM	25 to 100%
CC(c1nc2ccc(Cl)cc2c(=O)n1C)N1CCN(C(=O)Nc2ccc(Cl)cc2)CC1 (stereo not shown) [compound 18]	10 to 25 µM	25 to 100%
CCCn1c(C(C)N2CCN(S(=O)(=O)c3ccccc3)CC2)nc2ccccc2c1=O (stereo not shown) [compound 19]	10 to 25 µM	25 to 100%
CCCn1c(C(C)N2CCN(S(=O)(=O)c3ccc(Cl)c([N+](=O)[O-])c3)CC2)nc2ccccc2c1=O (stereo not shown) [compound 20]	25 to 60 µM	< 25%
CCCn1c(C(C)N2CCN(S(=O)(=O)c3c(C)cc(C)cc3C)CC2)nc2ccccc2c1=O (stereo not shown) [compound 21]	25 to 60 µM	25 to 100%
CCCn1c(C(C)N2CCN(S(=O)(=O)c3ccc(OC)cc3)CC2)nc2ccccc2c1=O (stereo not shown) [compound 22]	< 10 µM	> 100%
CCCn1c(C(C)N2CCN(C(=O)Nc3cccc(C#N)c3)CC2)nc2ccccc2c1=O (stereo not shown) [compound 23]	25 to 60 µM	25 to 100%
CCCn1c(C(C)N2CCN(C(=O)Nc3ccc(F)cc3F)CC2)nc2ccccc2c1=O (stereo not shown) [compound 24]	25 to 60 µM	25 to 100%
CCCn1c(C(C)N2CCN(C(=O)Nc3ccc(OC)cc3OC)CC2)nc2ccccc2c1=O (stereo not shown) [compound 25]	25 to 60 µM	< 25%
CCCn1c(C(C)N2CCN(S(=O)(=O)c3ccc(Cl)cc3)CC2)nc2ccccc2c1=O (stereo not shown) [compound 26]	< 10 µM	> 100%
CCCn1c(C(C)N2CCN(S(=O)(=O)c3ccc(Br)cc3)CC2)nc2ccccc2c1=O (stereo not shown) [compound 27]	< 10 µM	> 100%

Compound	EC50	Emax
CCCn1c(C(C)N2CCN(S(=O)(=O)c3ccc(F)cc3)CC2)nc2ccccc2c1=O (stereo not shown) [compound 28]	10 to 25 µM	25 to 100%
CCCn1c(C(C)N2CCN(S(=O)(=O)c3ccc(C)cc3)CC2)nc2ccccc2c1=O (stereo not shown) [compound 29]	10 to 25 µM	> 100%
CCCn1c(C(C)N2CCN(C(=O)c3ccc4ccccc4c3)CC2)nc2ccccc2c1=O (stereo not shown) [compound 30]	25 to 60 µM	25 to 100%
CC(c1nc2ccccc2c(=O)n1C)N1CCN(C(=O)Nc2ccccc2)CC1 (stereo not shown) [compound 31]	10 to 25 µM	< 25%
Cc1ccccc1C(=O)N1CCN(C(C)c2nc3ccccc3c(=O)n2C)CC1 (stereo not shown) [compound 32]	< 10 µM	< 25%
CC(c1nc2ccccc2c(=O)n1C)N1CCN(C(=O)Nc2ccc(Cl)cc2)CC1 (stereo not shown) [compound 33]	25 to 60 µM	25 to 100%
CCn1c(C(C)N2CCN(S(=O)(=O)c3ccc(Cl)c([N+](=O)[O-])c3)CC2)nc2ccc(Cl)cc2c1=O (stereo not shown) [compound 34]	25 to 60 µM	< 25%
CCn1c(C(C)N2CCN(S(=O)(=O)c3cccc4ccccc34)CC2)nc2ccc(Cl)cc2c1=O (stereo not shown) [compound 35]	< 10 µM	25 to 100%
CCn1c(C(C)N2CCN(S(=O)(=O)c3ccc(C)cc3)CC2)nc2ccc(Cl)cc2c1=O (stereo not shown) [compound 36]	25 to 60 µM	25 to 100%
CCn1c(C(C)N2CCN(S(=O)(=O)c3ccccc3)CC2)nc2ccc(Cl)cc2c1=O (stereo not shown) [compound 37]	10 to 25 µM	25 to 100%
CC(c1nc2ccc(Cl)cc2c(=O)n1C)N1CCN(C(=O)c2ccccc2)CC1 (stereo not shown) [compound 38]	25 to 60 µM	< 25%
CC(c1nc2ccc(Cl)cc2c(=O)n1C)N1CCN(C(=O)c2ccccc2Cl)CC1 (stereo not shown) [compound 39]	25 to 60 µM	25 to 100%
CC(c1nc2ccc(Cl)cc2c(=O)n1C)N1CCN(C(=O)c2ccc(Cl)cc2)CC1 (stereo not shown) [compound 40]	10 to 25 µM	25 to 100%
Cc1ccc(S(=O)(=O)N2CCN(C(C)c3nc4ccc(Cl)cc4c(=O)n3C)CC2)cc1 (stereo not shown) [compound 41]	25 to 60 µM	< 25%
CC(c1nc2ccc(Cl)cc2c(=O)n1C)N1CCN(S(=O)(=O)c2ccc(Br)cc2)CC1 (stereo not shown) [compound 42]	< 10 µM	25 to 100%
CC(c1nc2ccc(Cl)cc2c(=O)n1C)N1CCN(C(=O)Nc2ccccc2)CC1 (stereo not shown) [compound 43]	25 to 60 µM	< 25%
CC(c1nc2ccc(Cl)cc2c(=O)n1C)N1CCN(c2ccc(Cl)cc2)CC1 (stereo not shown) [compound 44]	< 10 µM	25 to 100%
Cc1ccc(NC(=O)N2CCN(C(C)c3nc4ccc(Cl)cc4c(=O)n3C)CC2)cc1 (stereo not shown) [compound 45]	25 to 60 µM	25 to 100%
CCCn1c(C(C)N2CCN(C(=O)CSc3ccccc3)CC2)nc2ccccc2c1=O (stereo not shown) [compound 46]	25 to 60 µM	25 to 100%
CCCn1c(C(C)N2CCN(S(=O)(=O)c3ccc4ccccc4c3)CC2)nc2ccccc2c1=O (stereo not shown) [compound 47]	< 10 µM	25 to 100%
Cc1cccc(S(=O)(=O)N2CCN(C(C)c3nc4ccccc4c(=O)n3C)CC2)c1 (stereo not shown) [compound 48]	25 to 60 µM	25 to 100%
COc1ccc(S(=O)(=O)N2CCN(C(C)c3nc4ccccc4c(=O)n3C)CC2)cc1OC (stereo not shown) [compound 49]	25 to 60 µM	< 25%
CC(c1nc2ccccc2c(=O)n1C)N1CCN(S(=O)(=O)c2ccc(OC(F)(F)F)cc2)CC1 (stereo not shown) [compound 50]	10 to 25 µM	25 to 100%
CC(c1nc2ccccc2c(=O)n1C)N1CCN(S(=O)(=O)c2ccc(Br)cc2)CC1 (stereo not shown) [compound 51]	10 to 25 µM	> 100%
CC(c1nc2ccccc2c(=O)n1C)N1CCN(C(=O)c2ccccc2)CC1 (stereo not shown) [compound 52]	10 to 25 µM	< 25%
CC(c1nc2ccccc2c(=O)n1C)N1CCN(C(=O)c2ccc(Cl)cc2)CC1 (stereo not shown) [compound 53]	25 to 60 µM	25 to 100%
